Experimental data taken from publication PMC2801521, “Correctness of Protein Identifications of Bacillus subtilis Proteome with the Indication on Potential False Positive Peptides Supported by Predictions of Their Retention Times” (Journal of Biomedicine and Biotechnology, 2009).

Assay: Experimental gradient RP-LC retention time of peptides (LC-ESI-MS/MS)
Assay type: physicochemical
Experimental: The chromatographic analysis was performed on C-18 analytical column: XTerra MS C18 3.5 μm (2.1 × 100 mm) column (Waters, Milford, MA, USA).
The mobile phase consisted of two solvents (A and B) mixed on-line. Solvent A was 0.1% aqueous (water was MS-grade) solution of trifluoroacetic acid (TFA) (Sigma-Aldrich, Steinheim, Germany) and solvent B was acetonitrile (ACN) (MS-grade, Sigma-Aldrich, Steinheim, Germany) containing 0.1% TFA. The applied linear gradient time was 90 min, from 0% B to 60% B. The flow rate was 200 μL/min. The injection volume was 10 μL. The LC-MS apparatus was equipped with thermostated column oven and surveyor autosampler controlled at 20°C (Thermo Finnigan, San Jose, CA, USA), a quaternary gradient Surveyor MS pump (Thermo Finnigan, San Jose, CA, USA) with a diode array detection (DAD) system, and LTQ linear ion trap MS system with ESI ion source controlled by Xcalibur software 1.4 (Thermo Finnigan, San Jose, CA, USA).
The MS/MS analysis was performed on Finnigan LTQ instrument (Thermo Finnigan, San Jose, CA, USA). Mass spectra were generated in positive ion mode under constant instrumental conditions: source voltage 4.62 kV, capillary voltage 40.97 V, sheath gas flow rate 39.99 (arbitrary units), auxiliary gas flow 10 (arbitrary units), sweep gas flow 0.95 (arbitrary units), capillary temperature 219.96°C, and tube lens voltage 250.43 V. MS/MS spectra, obtained by CID (collision-induced dissociation) in the linear ion trap, were performed with an isolation width 3Da (m/z); the activation amplitude was 35% of ejection RF amplitude that corresponds to 1.58 V.
The experimental retention times of the peptides (tR exp) were determined at peak intensity maximum. The m/z values measured manually for the most intense peaks in acquired MS/MS spectra were automatically searched against the protein database (*fasta) using the Sequest Algorithm, incorporated into Bioworks 3.0 (Thermo Finningan, San Jose, CA, USA). The *fasta format for each protein was downloaded from Expasy (http://www.expasy.org/sprot/).

[1] = Table 5, Bacillus subtilis proteome peptides, one peptide, Xcorr below 1.5, gradient RP-LC, XTerra MS C18, 0-60% ACN with 0.1% TFA in 90 min, 200 μL/min, 20°C, ESI-MS/MS
[2] = Table 1, model peptides, gradient RP-LC, XTerra MS C18 3.5 μm 2.1 × 100 mm, 0-60% ACN with 0.1% TFA, linear 90 min, 200 μL/min, 20°C, ESI-MS/MS, at peak intensity maximum
[3] = experimental gradient HPLC retention time (LC-ESI-MS/MS), Table 4 test peptides
[4] = Table 2, test peptides from model proteins, gradient RP-LC, XTerra MS C18, 0-60% ACN with 0.1% TFA in 90 min, 200 μL/min, 20°C, ESI-MS/MS

DGWKVCLGKVGSMDAHKVVAAIETASKKSG
tR exp [1]: 37.72 min

AAFTECCQAADK [model peptide from tryptic digest of model protein 6]
tR exp [2]: 19.31 min

VHTECCHGDLLECADDRADLAK [model peptide from tryptic digest of model protein 6]
tR exp [2]: 24.98 min

SGSIESIDVSLTDLR
tR exp [3]: 33.05 min

GNQVSENLQQAAR
tR exp [3]: 20.52 min

INIMSAR
tR exp [3]: 14.23 min

KIDKSIFPGIQGGPLMH
tR exp [1]: 12.03 min

LIDKHKKYVYHRINK
tR exp [3]: 29.00 min

IDIALESKK
tR exp [3]: 18.04 min

GQEQLIPPLIL
tR exp [1]: 81.34 min

PIITVAKEAWPTL
tR exp [1]: 83.17 min

EPIQSFFQID
tR exp [1]: 51.92 min

ELQEKFLIPAVEQKK
tR exp [3]: 29.27 min

AAEMAVARQNEQKVKK
tR exp [3]: 29.44 min

ETCFAEEGKK [test peptide from tryptic digest of model protein 6]
tR exp [4]: 16.58 min

IDNLSYYIEQEYK
tR exp [3]: 30.89 min

HSSDEEPFSALAFK
tR exp [3]: 33.16 min

CCAAADPHECYAK [model peptide from tryptic digest of model protein 6]
tR exp [2]: 16.98 min

SGETEDSTIADIAVATNAGQIK
tR exp [3]: 30.05 min

LALDLESKK
tR exp [3]: 18.01 min

QDIPIEARMNEIVHSLK
tR exp [3]: 29.33 min

LNSLDSR
tR exp [3]: 14.29 min

NLLFAAR
tR exp [3]: 14.27 min

IGLLIFLP
tR exp [1]: 93.97 min

DIMSPSR
tR exp [3]: 14.30 min

YICENQDSISSK [model peptide from tryptic digest of model protein 6]
tR exp [2]: 18.06 min

TCVADESAENCDK [model peptide from tryptic digest of model protein 6]
tR exp [2]: 15.32 min

HIIVACEGNPYVPVHFDASV [model peptide from tryptic digest of model protein 7]
tR exp [2]: 32.15 min

DRVFIAPVGGGPR
tR exp [3]: 29.82 min

GIIAAYG
tR exp [1]: 89.29 min

YPNCAYK [model peptide from tryptic digest of model protein 7]
tR exp [2]: 16.78 min

VVVSVNTDQDQAQAQSQDGED
tR exp [3]: 19.37 min

NVACK [test peptide from tryptic digest of model protein 7]
tR exp [4]: 8.38 min

EGTVIKELIGAGQLDEK
tR exp [3]: 29.49 min

DGITDVL
tR exp [1]: 93.5 min

ELSASMG
tR exp [1]: 18.33 min

NIAEMVK
tR exp [3]: 14.25 min

LTELQVRHII
tR exp [1]: 48.06 min

EVMIEGVLSVLEGQAPK
tR exp [3]: 29.51 min

NRAVGFISFVI
tR exp [1]: 58.59 min

QHMDSSTSAASSSNYCNQMMK [model peptide from tryptic digest of model protein 7]
tR exp [2]: 20.46 min

AQLSEKKGADGYL
tR exp [1]: 26.46 min

NECFLQHK [model peptide from tryptic digest of model protein 6]
tR exp [2]: 19.67 min

VHTECCHGDLLECADDR [model peptide from tryptic digest of model protein 6]
tR exp [2]: 22.86 min

IHTLEHLLAFTI
tR exp [1]: 81.04 min

LEIASEFGVNLGADTTSR
tR exp [3]: 33.12 min

EAEELIPNVTTAAVK
tR exp [3]: 29.18 min

GHNPGQPEPLSGSK
tR exp [3]: 17.05 min

TGALIVYTSADSVLQIAAHEEVVPLEE
tR exp [1]: 52.12 min

HGGSLSAPAIH
tR exp [1]: 97.03 min

LAAGISTI
tR exp [1]: 92.62 min

PQTPVP
tR exp [1]: 80.37 min

SHTGKAAVLNR
tR exp [3]: 24.54 min

IDFPTNITMD
tR exp [1]: 96.80 min
